Laboratory results: patent US20230147712A1, “OLEYL PHOSPHOCHOLINE CONTAINING GRANULATES” (Oblita Therapeutics BVBA, priority 2020, published 2023)

Assay: Hygroscopicity of oleyl phosphocholine (water absorption)
Type: physicochemical
Conditions: exposed to 90% RH at 25° C.
Method: The development of solid dosage formulations of oleyl phosphocholine, and specifically the development of tablets, is complicated by the low melting point (56.3° C.), high hygroscopicity (absorbing 41.67 weight percent of water when exposed to 90% RH at 25° C.) and irregular particle size and shape of oleyl phosphocholine. These characteristics make it hard to obtain homogeneous, dry powders for tableting.

hygroscopicity: water absorbed: 41.67 weight percent
Structure (SMILES): CCCCCCCC/C=C\CCCCCCCCOP(=O)([O-])OCC[N+](C)(C)C [oleyl phosphocholine]
